# Laboratory results: patent publication US20240043514A1, “NOVEL METHOD FOR PRODUCING ANTIBODIES” (TSINGHUA UNIVERSITY, priority 2017, published 2024)
# pIC50: −log10 of the molar value.
# Legend:
# PBMCs = assay: In vitro immunization (IVI) of PBMCs, antigen-specific IgG/IgM production by ELISA; format: cell-based, human; details: 500 nM synthesized TLR7/8 agonist
# Protocol: PBMCs were washed and diluted with PIV culture medium. Cell density was adjusted to 1*10^^7 cells/ml, treateder with 0.25 mM LLME for about 20 min. Discarded supernatant, and re-suspended cell with PIV culture medium. Adjusted cell density to 9*10^^5 cells/ml. […] Cultured the tissue for 7 days at 37° C., 5% CO2. Changed half of the medium and added factor cocktail on day 7. Cultured the cells for 7-21 days at 37° C., 5% CO2. Collected the supernatant on day 7, day 14, or day 21 for analysis of antibody production by ELISA, whereas the pellets are used for testing gene expression by PCR or RT-PCR. The collected cells were also tested in ELISpot assay for FACS analysis.
# Exemplary IVI steps with addition of stimulate factors: • 1. Prepared PBMCs and treat them with LLME. • 2. […] Collected the cells and plate them into 96-well plate at a density of 6*10^4/well. • 4. […] The IgG and IgM level was examined with ELISA assay.
# After day7 or day14 with addition of cytokines or antibody-enhancing composition and antigens, supernatants were harvested and added to antigen OVA-coated plates. After 2 hr incubation, a HRP-conjugated anti-human IgG or anti-human IgM was added, the amount of antigen-specific antibody was measured using TMB as substrate. The data represents the mean of 2 replicates; error bars represent SD. One representative data of 3 separate experiments is shown.
# Plates were coated with antigen at 5 μg/ml overnight at 4° C. and washed them in PBST (containing 0.5% Tween-20). The plates were blocked with 5% BSA before addition of cell culture supernatants and horseradish peroxidase (HRP)-conjugated detection antibodies (dilutions: 1 in 2,500 for HRP-conjugated IgG-specific antibody (Jackson) and HRP-conjugated IgM-specific antibody. TMB substrates solution was used for measurement. […]
# To further test effects of other cytokine or molecules on antibody production, a synthesized TLR7/8 agonist (50 nM and 500 nM) was added to the IVI system in the presence of antigen OVA (2 μg/ml).
# An exemplary cytokine, IL1β, was tested. PBMCs were incubated in vitro with OVA, basic, and either some of the known stimulating factors ICOS, CD40L, TLR7/8 agonists or IL1β (in different doses) (1.5*10^^5 cell/well, 96 well plate). After 7 or 14 days, supernatants were harvested, and IgG/IgM antibody production was measured by ELISA assay.
# TLR9 = target: T1, TLR9 (Homo sapiens, UniProt Q9NR96); assay: Inhibition of CpG2006 (TLR9 agonist) by E6446; format: cell-based; details: data not shown
# T1 sequence (Q9NR96 26-1032): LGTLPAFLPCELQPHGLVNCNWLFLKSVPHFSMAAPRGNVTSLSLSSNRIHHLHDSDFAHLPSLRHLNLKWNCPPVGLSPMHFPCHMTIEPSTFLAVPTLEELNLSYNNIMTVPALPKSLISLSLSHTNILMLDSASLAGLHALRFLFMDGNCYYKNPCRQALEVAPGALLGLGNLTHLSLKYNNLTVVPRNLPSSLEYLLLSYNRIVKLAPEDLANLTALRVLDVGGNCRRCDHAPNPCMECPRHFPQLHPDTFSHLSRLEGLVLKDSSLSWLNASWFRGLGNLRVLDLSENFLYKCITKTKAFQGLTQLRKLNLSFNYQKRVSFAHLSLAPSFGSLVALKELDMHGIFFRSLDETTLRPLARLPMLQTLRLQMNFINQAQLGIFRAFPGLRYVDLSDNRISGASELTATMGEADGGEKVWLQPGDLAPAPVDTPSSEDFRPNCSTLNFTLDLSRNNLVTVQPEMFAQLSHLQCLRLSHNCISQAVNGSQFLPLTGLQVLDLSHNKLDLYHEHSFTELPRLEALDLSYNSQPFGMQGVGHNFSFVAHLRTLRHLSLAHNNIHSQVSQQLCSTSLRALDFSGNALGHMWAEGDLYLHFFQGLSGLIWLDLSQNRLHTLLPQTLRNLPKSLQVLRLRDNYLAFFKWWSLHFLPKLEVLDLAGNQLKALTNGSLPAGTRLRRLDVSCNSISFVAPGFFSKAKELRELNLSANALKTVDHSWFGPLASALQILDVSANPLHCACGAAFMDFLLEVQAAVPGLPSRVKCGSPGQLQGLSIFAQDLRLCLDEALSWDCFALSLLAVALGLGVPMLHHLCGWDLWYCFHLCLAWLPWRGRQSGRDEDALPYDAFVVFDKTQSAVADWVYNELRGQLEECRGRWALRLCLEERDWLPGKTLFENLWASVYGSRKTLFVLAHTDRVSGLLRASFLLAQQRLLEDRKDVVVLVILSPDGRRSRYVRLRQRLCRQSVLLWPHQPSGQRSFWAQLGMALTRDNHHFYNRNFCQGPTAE
# Protocol: (§1) E6446 dihydrochloride (E6446-HCL), a synthetic nucleic acid-sensing TLRs antagonist. It's IC50 for CpG2006 (TLR9 agonist) was in the range of 0.01-0.03 uM (data not shown). But it required 2-8 uM (a 100-fold higher concentration) to inhibit the effect of R848 (TLR7/8 agonist) (data not shown).
# TLR7/8 = assay: Inhibition of the effect of R848 (TLR7/8 agonist) by E6446; format: cell-based
# Protocol: as §1
# [1] = tested on: Follicular dendritic cells (FDCs); assay: Flow cytometry of follicular dendritic cells (CD3-CD19-CD21+/CD35+) in PBMCs; format: cell-based, human; details: high concentration of E6446 (10 uM), with TLR7/8 agonist
# Protocol: FIGS. 12A-12G show the interactive effects between synthesized TLR7/8 agonist and TLR9 antagonist in stimulating anti-OVA antibody production in PBMCs. At low concentrations (0.02-0.2 uM), the E6446 enhanced the effect of synthesized TLR7/8, whereas at a high concentration (10 uM), E6446 inhibited this effect. Enzyme-linked immunosorbent assay (ELISA) analysis of OVA-specific antibodies of IgG (FIGS. 12A and 12D) and IgM (FIGS. 12B and 12E) responses were performed 7 days or 14 days after stimulant incubation. Cell proliferation (FIGS. 12C and 12F) was assayed by CellTiter-glo kit. Cells were harvested and tested by Flow cytometry (G). Follicular dendritic cells (FDCs) cells were gated as CD3^−CD19^−CD21^+/CD35^+ cells. Note. CD35 and CD21 are dendritic cell (DC) markers which may represent two subpopulations of DCs. The CD21-sub-type is inhibited by high concentration of E6446. […] The data represented the mean of 3 replicates; error bars represented SD. […]
smiles,measurement,setting,value
Cl.Cl.c1cc(-c2nc3ccc(OCCCN4CCCC4)cc3o2)ccc1OCCCN1CCCC1 [E6446 dihydrochloride],effect of low concentration E6446 on IgG production with TLR7/8 agonist,"PBMCs; E6446 0.02 uM and 0.2 uM, 14-day cultures, OVA+IL2+IL21",promotes the effects of TLR7/8 agonist on antibody IgG production
same,effect of high concentration E6446 on IgG and IgM production with TLR7/8 agonist,"PBMCs; E6446 10 uM, 7-day and 14-day cultures",reverses the effects of TLR7/8 agonist
same,pIC50,TLR9,7.52 to 8.00
same,concentration to inhibit R848 relative to IC50 for CpG2006,TLR7/8; TLR7/8 versus TLR9,100 fold
same,concentration required to inhibit the effect of R848 (TLR7/8 agonist),TLR7/8; data not shown,2 to 8 µM
same,CD21-sub-type of dendritic cells,[1],inhibited
